Earlier results on 3 molecules are cited in patent publication US20020127714A1, “Inhibitors of alternative alleles of genes encoding products that mediate cell response to environmental changes” (Variagenics, Inc., a Delaware corporation, priority 1998, published 2002).

Like-named read-outs stand apart in the source and are kept apart here.

One series addresses T1, MGMT 160 arginine allele (Homo sapiens, UniProt P16455, G160R).
T1 sequence (P16455 1-207 G160R): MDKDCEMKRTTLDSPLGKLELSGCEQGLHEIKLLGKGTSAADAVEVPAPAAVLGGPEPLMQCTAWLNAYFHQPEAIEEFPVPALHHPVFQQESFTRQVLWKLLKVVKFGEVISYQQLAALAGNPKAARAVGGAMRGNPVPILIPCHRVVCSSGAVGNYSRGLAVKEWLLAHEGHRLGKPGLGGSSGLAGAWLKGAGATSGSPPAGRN
The settings on record: 160arg versus 160gly form of MGMT; also seen as reduced production of guanine from O6-benzyl[8-3H]guanine.

The next series relates to serum asparagine. Conditions: within hours of injection.

`O=c1[nH]cc(F)c(=O)[nH]1` [5-FU, 5-fluorouracil]: the “half life of 5-FU” value (normals) was 0.13 to 0.333 h and the “half life of 5-FU” value (patients homozygous for mutant DPD alleles (DPD deficiency)) was above 2.5 h.
Turning to `Nc1nc(OCc2ccccc2)c2nc[nH]c2n1` [O6 benzylguanine, O6-benzylguanine], at MGMT 160 arginine allele, the “resistance of the 160 arginine allele to inactivation, measured as an increase in the ED50” value was “at least 20 fold”.
For L-asparaginase, the “blood levels of asparagine” value in the series with serum asparagine is listed as “undetectable levels”.
